Values quoted from earlier work as cited in paper PMC9851200, “Multiparameter phenotypic screening for endogenous TFEB and TFE3 translocation identifies novel chemical series modulating lysosome function” (Autophagy, 2022).

What was measured:
Design in all cases: method as in original PKIS2 published data
[1] = target: kinases (KINOMEscan panel) (Homo sapiens, UniProt O43353); settings: RIPK2; Published KINOMEscan; ref original PKIS2 published data; cited from earlier work
[2] = target: T1, kinases (KINOMEscan panel) (Homo sapiens, UniProt P15735); settings: kinase PHKG2; Published KINOMEscan; ref original PKIS2 published data; cited from earlier work
T1 sequence (P15735 1-406): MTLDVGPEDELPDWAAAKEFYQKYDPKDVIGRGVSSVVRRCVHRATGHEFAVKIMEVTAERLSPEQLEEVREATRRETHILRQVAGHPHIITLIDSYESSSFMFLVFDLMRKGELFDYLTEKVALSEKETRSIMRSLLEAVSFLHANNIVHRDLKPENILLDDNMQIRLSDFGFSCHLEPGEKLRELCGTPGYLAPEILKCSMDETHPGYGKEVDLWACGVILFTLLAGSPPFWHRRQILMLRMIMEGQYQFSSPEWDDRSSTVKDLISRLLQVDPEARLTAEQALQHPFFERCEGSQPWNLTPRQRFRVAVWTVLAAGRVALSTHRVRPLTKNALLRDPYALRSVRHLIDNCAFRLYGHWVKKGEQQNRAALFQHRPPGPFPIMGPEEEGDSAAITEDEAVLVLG

[3] = target: kinases (KINOMEscan panel) (Homo sapiens, UniProt P35916); settings: FLT4; Published KINOMEscan; ref original PKIS2 published data; cited from earlier work
[4] = target: kinases (KINOMEscan panel) (Homo sapiens, UniProt P42336); settings: kinase PIK3CA; Published KINOMEscan; ref original PKIS2 published data; cited from earlier work
[5] = target: kinases (KINOMEscan panel) (Homo sapiens, UniProt P50613); settings: kinase CDK7; Published KINOMEscan; ref original PKIS2 published data; cited from earlier work
[6] = target: kinases (KINOMEscan panel) (Homo sapiens, UniProt P54764); settings: EPHA4; Published KINOMEscan; ref original PKIS2 published data; cited from earlier work
[7] = target: kinases (KINOMEscan panel) (Homo sapiens, UniProt Q13705); settings: kinase ACVR2B; Published KINOMEscan; ref original PKIS2 published data; cited from earlier work
[8] = target: kinases (KINOMEscan panel) (Homo sapiens, UniProt Q86Z02); settings: HIPK1; Published KINOMEscan; ref original PKIS2 published data; cited from earlier work
[9] = target: T2, kinases (KINOMEscan panel) (Homo sapiens, UniProt Q8TF76); settings: HASPIN; Published KINOMEscan; ref original PKIS2 published data; cited from earlier work
T2 sequence (Q8TF76 1-798): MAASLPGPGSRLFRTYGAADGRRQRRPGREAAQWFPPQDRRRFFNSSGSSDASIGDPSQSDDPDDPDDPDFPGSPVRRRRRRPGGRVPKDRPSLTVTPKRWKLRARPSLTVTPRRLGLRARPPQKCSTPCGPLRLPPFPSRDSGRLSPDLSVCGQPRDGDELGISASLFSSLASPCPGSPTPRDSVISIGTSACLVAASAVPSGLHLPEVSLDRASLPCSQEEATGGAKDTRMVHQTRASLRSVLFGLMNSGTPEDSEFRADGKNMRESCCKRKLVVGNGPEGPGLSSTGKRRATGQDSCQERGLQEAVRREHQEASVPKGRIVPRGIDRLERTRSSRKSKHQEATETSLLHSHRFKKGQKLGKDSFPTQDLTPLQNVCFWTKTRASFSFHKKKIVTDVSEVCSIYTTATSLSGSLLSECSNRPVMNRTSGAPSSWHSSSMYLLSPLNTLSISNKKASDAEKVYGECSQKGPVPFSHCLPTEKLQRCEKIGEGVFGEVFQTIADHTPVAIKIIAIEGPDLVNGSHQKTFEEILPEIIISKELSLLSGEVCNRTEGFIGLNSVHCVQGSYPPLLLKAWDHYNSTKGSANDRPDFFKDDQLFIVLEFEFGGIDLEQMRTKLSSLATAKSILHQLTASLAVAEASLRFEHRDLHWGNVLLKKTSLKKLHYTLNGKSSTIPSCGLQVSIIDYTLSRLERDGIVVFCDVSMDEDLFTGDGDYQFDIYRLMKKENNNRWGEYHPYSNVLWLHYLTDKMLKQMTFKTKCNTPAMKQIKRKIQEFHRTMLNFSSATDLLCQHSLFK

[10] = target: kinases (KINOMEscan panel) (Homo sapiens, UniProt Q96GD4); settings: kinase AURKB; Published KINOMEscan; ref original PKIS2 published data; cited from earlier work
[11] = target: T3, kinases (KINOMEscan panel) (Homo sapiens, UniProt Q9UPZ9); settings: CILK1; Published KINOMEscan; ref original PKIS2 published data; cited from earlier work
T3 sequence (Q9UPZ9 1-632): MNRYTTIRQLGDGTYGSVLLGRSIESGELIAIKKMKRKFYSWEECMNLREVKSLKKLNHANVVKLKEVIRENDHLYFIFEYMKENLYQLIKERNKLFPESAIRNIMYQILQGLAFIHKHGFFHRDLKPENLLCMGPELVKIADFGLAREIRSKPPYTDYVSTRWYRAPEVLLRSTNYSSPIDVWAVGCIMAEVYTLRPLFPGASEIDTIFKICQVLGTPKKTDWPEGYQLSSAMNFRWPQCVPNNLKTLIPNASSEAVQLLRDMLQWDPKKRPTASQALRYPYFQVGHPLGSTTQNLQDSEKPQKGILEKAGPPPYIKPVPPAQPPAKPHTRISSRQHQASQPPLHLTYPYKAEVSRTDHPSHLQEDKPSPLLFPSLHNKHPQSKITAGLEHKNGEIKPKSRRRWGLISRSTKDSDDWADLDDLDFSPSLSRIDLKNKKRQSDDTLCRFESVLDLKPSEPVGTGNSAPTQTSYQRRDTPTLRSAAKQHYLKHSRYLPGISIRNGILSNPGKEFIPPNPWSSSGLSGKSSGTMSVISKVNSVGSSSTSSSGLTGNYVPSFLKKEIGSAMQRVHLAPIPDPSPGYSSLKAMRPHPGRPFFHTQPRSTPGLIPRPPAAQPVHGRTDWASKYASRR

Chain of kinases (KINOMEscan panel) (Homo sapiens, UniProt P35916) (P35916 25-1363): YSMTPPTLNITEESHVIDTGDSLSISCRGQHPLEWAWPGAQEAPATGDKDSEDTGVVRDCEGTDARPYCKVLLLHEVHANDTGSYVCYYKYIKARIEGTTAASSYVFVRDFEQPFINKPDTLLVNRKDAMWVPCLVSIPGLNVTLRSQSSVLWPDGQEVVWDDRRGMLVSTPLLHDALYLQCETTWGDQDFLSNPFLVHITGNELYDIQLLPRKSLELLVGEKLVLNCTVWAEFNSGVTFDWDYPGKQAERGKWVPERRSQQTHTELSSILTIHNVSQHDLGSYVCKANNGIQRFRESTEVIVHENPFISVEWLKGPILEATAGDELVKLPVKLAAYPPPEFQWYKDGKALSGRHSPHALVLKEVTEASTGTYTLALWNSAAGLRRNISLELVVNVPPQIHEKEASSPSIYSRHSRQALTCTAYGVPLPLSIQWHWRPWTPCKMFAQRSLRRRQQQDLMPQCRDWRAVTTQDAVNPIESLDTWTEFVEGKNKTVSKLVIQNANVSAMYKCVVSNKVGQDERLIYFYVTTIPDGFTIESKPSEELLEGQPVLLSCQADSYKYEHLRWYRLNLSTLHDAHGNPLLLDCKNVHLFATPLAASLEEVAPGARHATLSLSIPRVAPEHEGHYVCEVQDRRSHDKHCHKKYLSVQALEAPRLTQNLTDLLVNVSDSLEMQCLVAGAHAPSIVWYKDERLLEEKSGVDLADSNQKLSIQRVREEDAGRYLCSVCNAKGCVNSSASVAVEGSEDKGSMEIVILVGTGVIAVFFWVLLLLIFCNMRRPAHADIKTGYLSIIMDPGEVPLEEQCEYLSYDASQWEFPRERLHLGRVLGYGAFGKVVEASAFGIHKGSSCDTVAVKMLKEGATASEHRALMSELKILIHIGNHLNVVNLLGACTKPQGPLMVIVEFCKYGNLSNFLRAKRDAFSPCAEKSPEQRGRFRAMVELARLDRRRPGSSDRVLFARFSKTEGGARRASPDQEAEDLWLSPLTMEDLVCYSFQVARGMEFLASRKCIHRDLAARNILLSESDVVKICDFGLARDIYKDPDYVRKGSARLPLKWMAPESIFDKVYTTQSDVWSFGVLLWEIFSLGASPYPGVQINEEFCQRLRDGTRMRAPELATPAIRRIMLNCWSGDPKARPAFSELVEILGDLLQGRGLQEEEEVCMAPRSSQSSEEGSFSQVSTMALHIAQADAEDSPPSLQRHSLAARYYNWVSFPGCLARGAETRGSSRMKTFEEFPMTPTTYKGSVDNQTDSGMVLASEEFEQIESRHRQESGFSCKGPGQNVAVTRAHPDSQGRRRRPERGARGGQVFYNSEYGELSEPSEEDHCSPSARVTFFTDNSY
Chain of kinases (KINOMEscan panel) (Homo sapiens, UniProt Q13705) (Q13705 19-512): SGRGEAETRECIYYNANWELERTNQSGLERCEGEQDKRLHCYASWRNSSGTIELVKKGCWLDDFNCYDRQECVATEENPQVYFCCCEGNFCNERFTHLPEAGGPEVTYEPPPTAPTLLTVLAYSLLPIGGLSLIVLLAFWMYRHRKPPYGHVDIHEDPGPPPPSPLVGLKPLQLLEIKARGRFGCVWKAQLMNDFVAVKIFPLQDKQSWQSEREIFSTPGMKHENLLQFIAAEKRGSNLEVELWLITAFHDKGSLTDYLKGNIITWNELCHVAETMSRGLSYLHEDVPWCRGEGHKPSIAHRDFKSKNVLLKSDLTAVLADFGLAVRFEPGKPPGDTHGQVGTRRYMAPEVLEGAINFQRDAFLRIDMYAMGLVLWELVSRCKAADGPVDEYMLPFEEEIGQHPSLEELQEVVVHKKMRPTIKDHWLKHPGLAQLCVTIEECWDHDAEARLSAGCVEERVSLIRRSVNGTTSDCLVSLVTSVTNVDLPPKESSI
Chain of kinases (KINOMEscan panel) (Homo sapiens, UniProt O43353) (O43353 whole entry): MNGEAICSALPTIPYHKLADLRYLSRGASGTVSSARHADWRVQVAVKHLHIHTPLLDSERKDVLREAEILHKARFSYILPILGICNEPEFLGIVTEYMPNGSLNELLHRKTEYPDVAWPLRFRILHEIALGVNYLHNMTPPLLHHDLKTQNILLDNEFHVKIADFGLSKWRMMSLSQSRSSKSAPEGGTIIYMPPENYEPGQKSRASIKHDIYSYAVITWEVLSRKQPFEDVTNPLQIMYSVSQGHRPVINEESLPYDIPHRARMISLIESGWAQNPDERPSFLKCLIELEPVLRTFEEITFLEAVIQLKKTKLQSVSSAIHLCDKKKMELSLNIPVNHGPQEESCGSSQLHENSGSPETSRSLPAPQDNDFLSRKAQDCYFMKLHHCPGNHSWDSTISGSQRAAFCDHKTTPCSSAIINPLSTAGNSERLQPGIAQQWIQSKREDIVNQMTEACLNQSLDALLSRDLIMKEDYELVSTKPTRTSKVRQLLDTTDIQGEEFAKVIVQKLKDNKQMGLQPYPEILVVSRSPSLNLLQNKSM
Chain of kinases (KINOMEscan panel) (Homo sapiens, UniProt Q86Z02) (Q86Z02 whole entry): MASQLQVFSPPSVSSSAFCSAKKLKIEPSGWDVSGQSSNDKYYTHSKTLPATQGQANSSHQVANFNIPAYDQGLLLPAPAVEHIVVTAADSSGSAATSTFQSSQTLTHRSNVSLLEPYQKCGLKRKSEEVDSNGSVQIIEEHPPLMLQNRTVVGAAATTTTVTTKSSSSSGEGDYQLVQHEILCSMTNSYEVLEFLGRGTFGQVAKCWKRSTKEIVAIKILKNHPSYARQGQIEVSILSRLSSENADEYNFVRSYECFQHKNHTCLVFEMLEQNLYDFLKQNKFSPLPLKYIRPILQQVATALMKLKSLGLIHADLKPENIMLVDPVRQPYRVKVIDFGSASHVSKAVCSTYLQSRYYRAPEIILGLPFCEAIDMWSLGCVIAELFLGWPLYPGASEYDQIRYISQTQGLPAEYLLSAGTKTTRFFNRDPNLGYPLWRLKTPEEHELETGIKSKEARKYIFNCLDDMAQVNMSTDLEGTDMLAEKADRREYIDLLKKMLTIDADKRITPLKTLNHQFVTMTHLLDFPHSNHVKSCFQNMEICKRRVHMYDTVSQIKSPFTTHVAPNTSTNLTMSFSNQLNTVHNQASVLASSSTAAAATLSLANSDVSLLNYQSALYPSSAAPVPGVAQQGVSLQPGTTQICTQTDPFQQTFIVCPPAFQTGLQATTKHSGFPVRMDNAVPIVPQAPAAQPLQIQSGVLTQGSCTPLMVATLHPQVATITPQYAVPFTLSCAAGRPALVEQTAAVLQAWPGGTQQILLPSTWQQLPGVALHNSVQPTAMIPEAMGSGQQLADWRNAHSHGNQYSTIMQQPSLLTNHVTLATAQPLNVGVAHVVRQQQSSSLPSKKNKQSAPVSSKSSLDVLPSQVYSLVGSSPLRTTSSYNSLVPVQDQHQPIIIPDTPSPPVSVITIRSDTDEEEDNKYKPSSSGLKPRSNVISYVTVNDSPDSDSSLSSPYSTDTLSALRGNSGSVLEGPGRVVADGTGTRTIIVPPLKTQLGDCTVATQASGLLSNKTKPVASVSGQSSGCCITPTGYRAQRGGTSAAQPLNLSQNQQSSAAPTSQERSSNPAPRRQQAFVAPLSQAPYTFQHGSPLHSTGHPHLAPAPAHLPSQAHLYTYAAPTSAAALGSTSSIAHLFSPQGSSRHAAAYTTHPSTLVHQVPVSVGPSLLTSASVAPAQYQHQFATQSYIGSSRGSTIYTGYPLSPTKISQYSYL
Chain of kinases (KINOMEscan panel) (Homo sapiens, UniProt P50613) (P50613 whole entry): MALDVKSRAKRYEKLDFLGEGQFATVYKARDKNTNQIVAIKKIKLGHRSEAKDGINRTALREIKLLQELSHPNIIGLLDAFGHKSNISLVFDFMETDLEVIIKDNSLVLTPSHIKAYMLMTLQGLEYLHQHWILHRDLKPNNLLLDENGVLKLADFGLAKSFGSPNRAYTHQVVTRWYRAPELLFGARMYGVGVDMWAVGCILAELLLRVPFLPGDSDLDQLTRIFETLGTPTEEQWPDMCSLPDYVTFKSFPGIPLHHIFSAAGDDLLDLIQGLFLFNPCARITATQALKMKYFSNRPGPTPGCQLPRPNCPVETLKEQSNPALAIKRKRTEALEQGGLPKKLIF
Chain of kinases (KINOMEscan panel) (Homo sapiens, UniProt Q96GD4) (Q96GD4 whole entry): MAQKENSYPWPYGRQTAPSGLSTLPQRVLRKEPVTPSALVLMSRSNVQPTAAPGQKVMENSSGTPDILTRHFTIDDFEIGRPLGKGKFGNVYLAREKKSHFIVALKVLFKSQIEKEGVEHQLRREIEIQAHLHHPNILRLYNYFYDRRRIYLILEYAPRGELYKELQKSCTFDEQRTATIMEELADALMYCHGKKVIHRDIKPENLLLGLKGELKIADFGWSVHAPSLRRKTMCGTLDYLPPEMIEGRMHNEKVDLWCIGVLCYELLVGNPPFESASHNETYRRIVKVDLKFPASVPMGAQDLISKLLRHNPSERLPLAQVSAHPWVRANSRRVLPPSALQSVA

## Cc1cccc(-c2nc(Nc3ccncc3)c3ccccc3n2)n1 [NK215]
[1]
  KINOMEscan RIPK2: 71
[2]
  KINOMEscan PHKG2: 3
[3]
  KINOMEscan FLT4: 1
[4]
  KINOMEscan PIK3CA: 0
[5]
  KINOMEscan CDK7: 0
[6]
  KINOMEscan EPHA4: 18
[7]
  KINOMEscan ACVR2B: 36
[8]
  KINOMEscan HIPK1: 41
[9]
  KINOMEscan HASPIN: 26
[10]
  KINOMEscan AURKB: 10
[11]
  KINOMEscan CILK1: 0
